Measured values reported in patent US11465986B2, “Crystal form of c-MET inhibitor and salt form thereof and preparation method therefor” (FUJIAN AKEYLINK BIOTECHNOLOGY CO., LTD., priority 2018, dated 2022).

Tests used:
[1] = test system: human liver cancer MHCC97H cell xenograft tumor; experiment: In vivo efficacy, MHCC97H subcutaneous xenograft tumor model; parameters: species or system BALB/c nude mice; conditions: for tumor volume (24th day): 24th day after administration, average value±SEM; for T/C / TGI: based on the tumor volume on the 24th day after administration
Description: MHCC97H cells were cultured in a single layer in-vitro. The culturing condition was RPMI1640 medium supplemented with 10% heat-inactivated fetal bovine serum, 1% penicillin-streptomycin double antibody under 37° C., 5% carbon dioxide. Digestion and passage treatment with trypsin-EDTA was done twice a week. When the cells were in the exponential growing phase, the cells were collected, counted and inoculated.
BALB/c nude mice, male. 6-8 weeks old, weighting 18-22 g.
0.2 mL of a cell suspension containing 5×10^6 MHCC97H was subcutaneously inoculated into the right back of each mouse. Drugs were administered by group after the average tumor volume reached approximately 172 mm^3.
Investigation of whether the tumor growth was inhibited, delayed or cured. The diameters of the tumor were measured twice a week using a vernier caliper. The formula for calculating the tumor volume is V=0.5a×b^2, and a and b represent the long and short diameters of the tumor respectively. The antitumor effect (TGI) of the compound was evaluated by T-C (days) and TIC (%).
Remark: a. average value±SEM; b. p value was calculated based on the tumor volume.

[2] = Liver microsome metabolism, human; type: in vitro ADME
[3] = Liver microsome metabolism, rat; type: in vitro ADME
[4] = Liver microsome metabolism, mouse; type: in vitro ADME
MHCC97-H cells [5] = conditions: read-out: IC50 on MHCC97-H cells; background section; cited from earlier work
MHCC97-H cells [6] = test system: MHCC97-H cells
Description: The cell plates were incubated in a carbon dioxide incubator for 3 days.

[7] = liver microsomes, read-out: t1/2 by liver microsome metabolism

## CN1CCC(COc2cnc(-c3cccc(Cn4nc(-c5cccc(C#N)c5)ccc4=O)c3)nc2)CC1 [Tepotinib, reference compound]
[1]
  tumor volume (24th day): 255 ± 5 mm^3
  T/C: 12.4%
  TGI: 95.6%
[2]; [7]
  half-life: 48.3 min
[3]; [7]
  half-life: 10.5 min
[4]; [7]
  half-life: 12.4 min
MHCC97-H cells [5]
  IC50: 6.2 nM

## C[C@H](c1cccc(-c2ncc(OCC3CCN(C)CC3)cn2)c1)n1cc(-c2cc(C#N)ccn2)cc(F)c1=O [compound represented by formula (I)]
MHCC97-H cells [6]
  Inhibitory activity on MHCC97H cell, in words: good inhibitory activity
[1]
  tumor volume (24th day): 153 ± 12 mm^3
  T/C: 7.4%
  TGI: 101.0%
[1]; MHCC97H liver cancer cell subcutaneous xenograft tumor model
  Tumor inhibitory effect compared with tepotinib, in words: better tumor inhibitory effect than tepotinib
[2]
  t1/2 by liver microsome metabolism: 62.1 min
[3]
  t1/2 by liver microsome metabolism: 36.5 min
[4]
  t1/2 by liver microsome metabolism: 49.1 min
